Measured values as given in paper PMC10924921, “Mi-2β promotes immune evasion in melanoma by activating EZH2 methylation” (Nature Communications, 2024).
Entries after “also recorded” stand apart in the source; their conditions may differ.

Tests used:
[1] = system: tumor-infiltrating lymphocytes in B16F10 graft; experiment: Flow cytometry of tumor-infiltrating lymphocytes, B16F10 graft; format: in vivo, C57BL/6 mice
Description: Tumors were minced with scissors, and then digested with the digestion buffer (RPMI 1640 medium, 5% FBS, 1% penicillin-streptomycin, 25 mM HEPES, and 300 U collagenase (Sigma C0130)) on a shaker at 37 °C for 2 hours. Single cells were prepared through a 70 μm cell strainer. Erythrocytes were removed by incubation in red blood cell lysis buffer (R7757, Sigma) at room temperature for 5 min. The cells were prepared in PBS (with concentration of ~2 × 10^7) for studies.
The single-cell suspension were fixed with 2% paraformaldehyde solution (J19943K2, Thermo Scientific). CD45 + T cells were selected from single-cell suspension (about 2 × 10^7 cells digest from […] tumor tissue) by flow cytometry with the follow antibodies (anti-mouse CD45; BD pharmingen, 561875). And then the cells were stained anti-mouse CD3e PE (145-2C11, BD pharmingen, 553063), anti-mouse CD4 FITC (RM4-5, BD pharmingen, 553046), anti-mouse CD4 PE/Cy7 (GK1.5, BioLegend, 100421), anti-mouse CD8 FITC (53-6.7, BD pharmingen, 553031), anti-mouse CD8a APC/Cy7 (53-6.7, BioLegend 100713), anti-mouse IFN-γ PE (XMG1.2, eBioscience, 12731181), anti-mouse CD69 PE (H1.2F3, Biolegend, 104508), anti-mouse CD25 Alexa Fluor 488 (PC61.5, eBioscience, 53025182), anti-mouse CD107a-V450 (1D4B, BD, 560648), anti-human/mouse granzyme B FITC (GB11, BioLegend, 515403). […]

[2] = system: 468 kinases; experiment: KINOMEscan screening (DiscoveRx); format: binding; conditions: 1000 nM
[3] = Estimated blood concentration in mice; format: in vivo; conditions: intraperitoneal 30 mg per kg, extrapolated from rat
Source text: FLT3 kinase inhibitor for acute myeloid leukemia with FLT3 mutations. J Med Chem, 61, 3855-3869 (2018); Lexian Tong et al., Identification of 2-aminopyrimidine derivatives as FLT3 kinase inhibitors with high selectivity over c-KIT. J Med Chem, 65, 3229-3248 (2022)). In these cases, the cellular form of the FLT3-WT or FLT3-ITD mutant was preferentially bound. Another example is paclitaxel, a microtubule-stabilizing agent that is widely used in cancer chemotherapy. Biochemical competitive […]
(Shubhada Sharma, et al., Dissecting paclitaxel–microtubule association: quantitative assessment of the 2’-OH group. Biochemistry, 52, 2328-2336 (2013)). Paclitaxel sensitizes BG-1 ovarian cancer cells to radiation at a dose that was not cytotoxic and […]
sensitizer: a flow cytometric study. Gynecol Oncol, 50, 89-93 (1993)).
Like the Mi-2β silencing by shMi-2β (Supplementary Fig. 3C), we observed substantial increases in expressions of Mi-2β target genes, Cxcl9 and Cxcl10, to similar levels after treatment of B16F10 cells with Z36-MP5 at concentrations 5 μM to 100 μM (Fig. 5F).
MP5 treatment would be sufficient for inhibiting Mi-2β in cells. Moreover, we observed a maintenance of blood concentration of 4 μM to 10 μM Z36-MP5 in rat for around 1 hour after the intraperitoneal injection at a dose of Z36-MP5 as low as 1 mg per kg […]

[4] = system: B16F10 cell graft; experiment: Antibody-mediated CD8 T-cell depletion and Z36-MP5 treatment; format: in vivo, mouse; conditions: Z36-MP5 30 mg/kg, 200 µg anti-CD8
[5] = target: recombinant purified human Mi-2β protein (Homo sapiens, UniProt Q14839); experiment: FRET-based nucleosome repositioning assay (EpiDyne-FRET); conditions: for IC50: IC50 against Mi-2β
recombinant purified human Mi-2β protein, sequence (Q14839 whole entry): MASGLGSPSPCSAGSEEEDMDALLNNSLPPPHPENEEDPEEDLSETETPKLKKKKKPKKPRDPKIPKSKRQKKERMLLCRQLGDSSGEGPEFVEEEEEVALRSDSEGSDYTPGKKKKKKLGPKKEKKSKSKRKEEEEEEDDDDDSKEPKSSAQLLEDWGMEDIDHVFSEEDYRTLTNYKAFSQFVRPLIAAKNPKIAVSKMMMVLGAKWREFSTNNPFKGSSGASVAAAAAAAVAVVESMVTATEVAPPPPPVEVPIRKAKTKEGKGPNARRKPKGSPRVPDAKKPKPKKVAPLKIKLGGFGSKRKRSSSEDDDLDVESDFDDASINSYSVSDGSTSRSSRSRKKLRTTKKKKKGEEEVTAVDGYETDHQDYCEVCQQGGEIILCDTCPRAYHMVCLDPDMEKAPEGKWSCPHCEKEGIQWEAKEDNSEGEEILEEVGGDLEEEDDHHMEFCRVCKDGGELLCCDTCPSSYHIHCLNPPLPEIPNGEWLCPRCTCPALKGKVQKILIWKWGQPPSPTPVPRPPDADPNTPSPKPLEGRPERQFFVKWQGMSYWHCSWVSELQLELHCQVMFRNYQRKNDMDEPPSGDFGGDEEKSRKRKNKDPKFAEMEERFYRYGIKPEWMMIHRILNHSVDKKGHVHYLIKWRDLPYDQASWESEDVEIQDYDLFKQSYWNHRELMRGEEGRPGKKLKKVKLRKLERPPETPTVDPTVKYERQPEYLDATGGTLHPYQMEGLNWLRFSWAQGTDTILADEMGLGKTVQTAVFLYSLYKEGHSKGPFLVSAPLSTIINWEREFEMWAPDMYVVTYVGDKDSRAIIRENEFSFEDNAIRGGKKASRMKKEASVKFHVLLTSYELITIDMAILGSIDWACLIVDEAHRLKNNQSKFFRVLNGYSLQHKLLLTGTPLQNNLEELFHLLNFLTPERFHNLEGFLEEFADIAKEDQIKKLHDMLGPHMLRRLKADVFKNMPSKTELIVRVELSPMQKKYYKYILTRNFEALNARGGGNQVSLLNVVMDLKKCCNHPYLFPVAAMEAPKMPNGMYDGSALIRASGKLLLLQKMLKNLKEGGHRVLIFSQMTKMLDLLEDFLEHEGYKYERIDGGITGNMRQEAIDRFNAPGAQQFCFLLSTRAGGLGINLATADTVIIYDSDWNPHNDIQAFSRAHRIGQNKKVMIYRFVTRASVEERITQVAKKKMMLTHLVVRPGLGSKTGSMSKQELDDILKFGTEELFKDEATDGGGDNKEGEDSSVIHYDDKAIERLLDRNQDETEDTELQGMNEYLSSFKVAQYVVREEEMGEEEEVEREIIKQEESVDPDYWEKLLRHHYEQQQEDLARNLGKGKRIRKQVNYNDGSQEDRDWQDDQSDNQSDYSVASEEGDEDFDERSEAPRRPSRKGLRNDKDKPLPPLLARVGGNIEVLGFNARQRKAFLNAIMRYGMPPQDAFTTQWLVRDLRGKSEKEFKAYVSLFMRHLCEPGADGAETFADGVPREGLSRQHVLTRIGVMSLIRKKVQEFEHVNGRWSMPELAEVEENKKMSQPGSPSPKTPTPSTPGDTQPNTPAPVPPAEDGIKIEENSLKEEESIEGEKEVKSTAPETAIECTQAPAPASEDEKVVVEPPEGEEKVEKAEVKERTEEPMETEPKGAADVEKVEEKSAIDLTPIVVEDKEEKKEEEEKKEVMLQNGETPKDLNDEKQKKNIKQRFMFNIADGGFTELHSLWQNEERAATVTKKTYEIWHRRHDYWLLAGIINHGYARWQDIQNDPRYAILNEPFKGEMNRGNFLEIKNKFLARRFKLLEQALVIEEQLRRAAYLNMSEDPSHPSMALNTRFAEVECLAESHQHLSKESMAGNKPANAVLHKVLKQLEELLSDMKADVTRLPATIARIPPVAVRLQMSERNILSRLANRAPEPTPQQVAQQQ

[6] = system: tumor-infiltrating lymphocytes in BRafV600E/Ptennull melanoma; experiment: Flow cytometry of tumor-infiltrating lymphocytes, genetically engineered model; format: in vivo, mouse
Description: Mi-2β^lox/lox mice were generated and generously provide by Dr. Georgopoulos lab (Massachusetts General Hospital at Harvard Medical School)[31]. Tyr::CreER;BRaf^CA;Pten^lox/lox mice were purchased from Jackson laboratories (Stock No: 013590). All strains of mice were on the background of C57BL/6J background. Gene activation and silencing were induced with intraperitoneal (i.p.) administration of 100 µL/mouse/day tamoxifen (20 mg/mL) for constant 5 days. […] Tumor growth was then monitored each the other day. […] When the following conditions occur, the mouse is regarded as dead and euthanized, including weight loss greater than 15%; significant abdominal distension, especially if it begins to compromise respiratory ability of animal; hunched posture; failure to eat or drink; absence of (or abnormal) feces or urine output; reluctance to move or abnormal gait; Discharges or hemorrhage. Abnormal behavior or vocalizations and tumor size exceeded 1 cm^3. All animal experiments were done according to protocols approved by the ethics committee review board of Boston University and in accordance with the guidelines set forth by the US National Institutes of Health and The ethics committee review board of The 2nd Hospital and School of Medicine, Zhejiang University. […]

SMILES: Cn1c(=O)[nH]c2ccc(-c3cccc(C(=O)NC4CCn5ccnc5C4)c3)cc21 (stereo not drawn) [Z36-MP5]
- CD8+ T-cell TILs in graft melanomas [1]: moderate increase
- GZMB expression and activation markers CD69, IFN-γ, CD25, CD107 in tumor-infiltrating CD8+ T cells [1]: upregulation
- activity against 468 kinases [2]: extremely high kinase selectivity; also recorded: not significantly active on any targets tested
- estimated highest blood concentration in mice [3]: around 0.97 mM
- effectiveness after neutralization of CD8 T cells [4]: completely abolished the effectiveness
- inhibition of Mi-2β ATPase ([5]; 1 µM): completely inhibits
- IC50 ([5]; ATP 10 μM): 79 ± 13 nM
- IC50 ([5]; ATP 30 μM): 198 ± 33 nM
- IC50 ([5]; ATP 100 μM): 576 ± 86 nM
- IC50 ([5]; ATP 300 μM): 1660 ± 358 nM
- IC50 ([5]; Mi-2β chromatin modulatory activity, n = 3): 82 ± 13 nM
- mode of inhibition ([5]; IC50 increased with ATP 10–300 µM): ATP-competitive inhibitor
- potency relative to the original compound Z36 ([5]; ratio of IC50 values): ~ 85 fold
- CD4+ T-cell and Treg populations [6]: not affected
- CD8+ T-cell population [6]: moderately induced
